Experimental data: patent US7829666B2, “Maurotoxin, PI1 and HSTX1 derivatives” (Cellpep Pharma Inc., priority 2000, dated 2010)
Bridge positions count the residues as written; N and C are the ends. Square brackets hold non-standard residues; d marks the D form. Peptide text beside a SMILES is read from it. Abu = CC[C@H](N)C(=O)O

Experiments:
[1] = Lethality/toxicity in C57/BL6 mice, intracerebroventricular injection; assay type: in vivo; settings: mouse, in vivo
Description: (§1) The MTX derivatives, as well as the MTX structurally homologous Pi1 or HsTx1 derivatives, of the invention are thus of potential therapeutic value for treating mammalian (including human) pathologies that are associated with a dysfunctioning of Ca^2+-activated and/or voltage-gated Kv channel subtypes. Such pathologies include immune and/or neurological diseases like multiple sclerosis, Parkinson's and Alzheimer's diseases, both thought to be associated with a dysfunctioning of Ca^2+-activated and/or voltage-gated K^+ channel subtype(s). The axonal impulse propagation ensures a continued transmission of nervous signals to remote targets. In a number of neuropathies, the nervous conduction is either slowed down or locked. This could be linked to alteration or functional changes of myelinated fibres (demyelinisation or alteration of the membrane properties at the Ranvier nodes). Among these neuropathies are multiple sclerosis (central nervous system; CNS) and Guillain-Barr syndrome (peripheral nervous system). It is now well-admitted that alteration of the axonal function is related to the presence of voltage-gated (Kv) K^+ channels (there is a widespread distribution of Kv1.1 and Kv1.2 channel subtypes in nerve terminals throughout the brain, whereas Kv channels—independent of their subtypes—are considered to be ubiquitous, including in the peripheral nervous system), and possibly Ca^2+-activated K^+ channels. In the previously cited neuropathies, Ca^2+-activated K^+ channels and Kv channels are either abnormally exposed in demyelinated or inflammatory lesions, or over-expressed. Therefore, selective K^+-channel blockers, including Ca^2+-activated K^+ channel-acting and/or Kv-acting MTX/Pi1/HsTx1-derived peptides such as [Q15]-MTX, Pi1 amidated at C-terminus, [Abu9, 19, 29, 34]-MIX, are of potential therapeutic value as symptomatic therapy of multiple sclerosis and related neuropathies, as well as for use as selective immuno-suppressant drugs by their blocking action on Ca^2+-activated and/or Kv channels. Further, it can be speculated that such peptide blockers, in the CNS, could enhance transmitter release in pathways affected by progressive neurodegenerative diseases such as Alzheimer's disease.

[2] = system: Ca2+-activated K+ channels, e.g. apamin-sensitive SK channels; settings: background statement; cited from earlier work
rat Kv1.3 channels = rat Kv1.3 channels (Rattus norvegicus, UniProt P15384); settings: background statement; cited from earlier work
[3] = biological target: T1, mammalian voltage-gated Kv1.2 channel subtype (Homo sapiens, UniProt P16389); test: Blocking activity on voltage-gated Kv1.2 channel; assay type: cell-based
Description: (§2) In one preferred derivative, the substitution of the MTX half-cystine residues (by amino butyrate derivatives) located at positions 9, 19, 29, and 34 (corresponding by numbers to C2, C4, C6, and C8) results in a two disulfide-bridged MTX analog, i.e. VSCTGSKDAbuYAPCRKQTGAbuPNAKCINKSAbuKCYGAbu-NH2 [SEQ. ID NO. 8], with novel, non-native arrangement of the half-cystine pairings (Cys3-Cys24 and Cys13-Cys31).
An alternative approach to replacement of Cys residues with Abu is the replacement of one or two amino acid residues in natural MTX with other residues which prevent the folding of the molecule in such a way that the unconventional C1-C5, C2-C6, C3-C7 and C4-C8 disulfide bridge arrangement can occur. For instance, if neither of the residues at positions 32 and 33 is a Gly or Pro residue, the folding is altered in such a way that the MTX derivative adopts the conventional C1-C5, C2-C6, C3-C7 and C4-C8 of Pi1 and HsTx1. In particular, replacement of the Gly residue at position 33 by an Ala residue substitution, forming [A33]-MTX [SEQ. ID NO. 4], is effective. Substitution of Arg14 and/or Lys15 by Gln to give [Q14]-MTX [SEQ. ID NO. 5], [Q15]-MTX [SEQ. ID NO. 6] or [Q14,Q15]-MTX [SEQ. ID NO. 7] also induces half-cystine pairings between Cys3-Cys24, Cys9-Cys29, Cys13-Cys31 and Cys19-Cys34.

C57/BL6 mice = test: Lethality/toxicity in C57/BL6 mice, intracerebroventricular injection; assay type: in vivo
Description: as §1

[4] = system: Ca2+-activated K+ channels; test: Activity of MTX analog on Ca2+-activated K+ channels; assay type: cell-based
Description: as §2

[5] = biological target: T1, mammalian voltage-gated Kv1.2 channel subtype; settings: background statement; picomolar or nanomolar concentration range; cited from earlier work

Chain of rat Kv1.3 channels (P15384 whole entry): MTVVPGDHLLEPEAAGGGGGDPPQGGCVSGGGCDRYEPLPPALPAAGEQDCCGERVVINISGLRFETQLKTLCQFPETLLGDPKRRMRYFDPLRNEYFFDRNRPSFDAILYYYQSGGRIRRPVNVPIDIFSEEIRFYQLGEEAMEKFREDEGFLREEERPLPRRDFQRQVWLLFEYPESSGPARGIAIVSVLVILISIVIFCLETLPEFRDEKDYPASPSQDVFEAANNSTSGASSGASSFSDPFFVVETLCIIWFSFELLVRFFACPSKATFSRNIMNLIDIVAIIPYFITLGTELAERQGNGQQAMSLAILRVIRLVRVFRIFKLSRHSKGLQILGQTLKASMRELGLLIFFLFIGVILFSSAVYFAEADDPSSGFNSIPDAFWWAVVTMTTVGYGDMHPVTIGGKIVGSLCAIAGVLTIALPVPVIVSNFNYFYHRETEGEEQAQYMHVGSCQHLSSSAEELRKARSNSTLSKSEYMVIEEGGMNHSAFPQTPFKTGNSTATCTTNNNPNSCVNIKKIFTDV
T1 sequence (P16389 whole entry): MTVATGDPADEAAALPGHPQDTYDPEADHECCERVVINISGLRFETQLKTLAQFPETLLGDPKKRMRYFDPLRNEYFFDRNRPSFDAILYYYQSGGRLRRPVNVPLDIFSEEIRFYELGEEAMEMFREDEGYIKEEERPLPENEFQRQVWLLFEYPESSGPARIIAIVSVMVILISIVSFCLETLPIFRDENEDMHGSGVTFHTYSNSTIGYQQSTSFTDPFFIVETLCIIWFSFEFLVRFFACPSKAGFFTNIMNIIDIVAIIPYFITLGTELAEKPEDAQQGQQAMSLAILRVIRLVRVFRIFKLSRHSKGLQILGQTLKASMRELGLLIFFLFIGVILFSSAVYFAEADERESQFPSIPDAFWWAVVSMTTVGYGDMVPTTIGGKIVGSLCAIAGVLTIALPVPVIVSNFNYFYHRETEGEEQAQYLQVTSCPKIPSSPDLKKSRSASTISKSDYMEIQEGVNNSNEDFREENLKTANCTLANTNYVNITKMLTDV

CC[C@H](C)[C@@H]1NC(=O)[C@@H]2CSSC[C@H](NC(=O)[C@H](CCCCN)NC(=O)[C@@H](NC(=O)[C@@H](N)CC(C)C)C(C)C)C(=O)N[C@@H](CCCNC(=N)N)C(=O)NCC(=O)N[C@@H]([C@@H](C)O)C(=O)N[C@@H](CO)C(=O)N[C@@H](CC(=O)O)C(=O)N[C@H]3CSSC[C@H](NC(=O)[C@H](CCSC)NC(=O)[C@H](CCCNC(=N)N)NC(=O)[C@H](CC(N)=O)NC1=O)C(=O)N[C@@H](CCCCN)C(=O)N[C@H]1CSSC[C@H](NC(=O)[C@@H]4CCCN4C(=O)[C@H](CCCNC(=N)N)NC(=O)CNC3=O)C(=O)N[C@@H](CCC(N)=O)C(=O)N[C@@H](CCC(N)=O)C(=O)N[C@@H](CCC(N)=O)C(=O)N[C@@H]([C@@H](C)O)C(=O)NCC(=O)N[C@@H](CSSC[C@@H](C(N)=O)NC(=O)CNC(=O)[C@H](Cc3ccc(O)cc3)NC1=O)C(=O)N1CCC[C@H]1C(=O)N[C@@H](CC(N)=O)C(=O)N[C@@H](CO)C(=O)N[C@@H](CCCCN)C(=O)N2 [Pi1] (H-LVKCRGTSDCGRPCQQQTGCPNSKCINRMCKCYGC-NH2; disulfide 4-25, 10-30, 14-32, 20-35; N-terminus and C-terminus assumed)
LD50 [1]: 10 µg/kg | activity on Ca2+-activated K+ channels, e.g. apamin-sensitive SK channels [2]: active | activity on rat Kv1.3 channels (rat Kv1.3 channels): active on rat Kv1.3 channels contrary to synthetic Pi1

CC[C@H](NC(=O)CNC(=O)[C@H](Cc1ccc(O)cc1)NC(=O)[C@@H]1CSSC[C@@H]2NC(=O)[C@@H]3CCCN3C(=O)[C@H](C)NC(=O)[C@H](Cc3ccc(O)cc3)NC(=O)[C@H](CC)NC(=O)[C@H](CC(=O)O)NC(=O)[C@H](CCCCN)NC(=O)[C@H](CO)NC(=O)CNC(=O)[C@H]([C@@H](C)O)NC(=O)[C@@H](NC(=O)[C@H](CO)NC(=O)[C@@H](N)C(C)C)CSSC[C@H](NC(=O)[C@H](CCCCN)NC(=O)[C@H](C)NC(=O)[C@H](CC(N)=O)NC(=O)[C@@H]3CCCN3C(=O)[C@H](CC)NC(=O)CNC(=O)[C@H]([C@@H](C)O)NC(=O)[C@H](CCC(N)=O)NC(=O)[C@H](CCCCN)NC(=O)[C@H](CCCNC(=N)N)NC2=O)C(=O)N[C@@H]([C@@H](C)CC)C(=O)N[C@@H](CC(N)=O)C(=O)N[C@@H](CCCCN)C(=O)N[C@@H](CO)C(=O)N[C@@H](CC)C(=O)N[C@@H](CCCCN)C(=O)N1)C(N)=O [[Abu9, 19, 29, 34]-MTX, VSCTGSKDAbuYAPCRKQTGAbuPNAKCINKSAbuKCYGAbu-NH2] (H-VSCTGSKD[Abu]YAPCRKQTG[Abu]PNAKCINKS[Abu]KCYG[Abu]-NH2; disulfide 3-24, 13-31)
IC50 [3]: 42 nM | lethality/toxicity (C57/BL6 mice; injected intracerebroventricularly, up to 1.25 mg/kg): neither lethal nor toxic | activity on Ca2+-activated K+ channels [4]: remains active

HsTx1
activity on Ca2+-activated K+ channels, e.g. apamin-sensitive SK channels [2]: inactive

CC[C@H](C)[C@@H]1NC(=O)[C@@H]2CSSC[C@H](NC(=O)[C@H](CO)NC(=O)[C@@H](N)C(C)C)C(=O)N[C@@H]([C@@H](C)O)C(=O)NCC(=O)N[C@@H](CO)C(=O)N[C@@H](CCCCN)C(=O)N[C@@H](CC(=O)O)C(=O)N[C@@H](CSSC[C@@H](C(=O)N[C@@H](CCCCN)C(=O)N[C@H]3CSSC[C@@H](C(N)=O)NC(=O)CNC(=O)[C@H](Cc4ccc(O)cc4)NC3=O)NC(=O)[C@H](CO)NC(=O)[C@H](CCCCN)NC(=O)[C@H](CC(N)=O)NC1=O)C(=O)N[C@@H](Cc1ccc(O)cc1)C(=O)N[C@@H](C)C(=O)N1CCC[C@H]1C(=O)N[C@H]1CSSC[C@H](NC(=O)CNC(=O)[C@H]([C@@H](C)O)NC(=O)[C@H](CCC(N)=O)NC(=O)[C@H](CCCCN)NC(=O)[C@H](CCCNC(=N)N)NC1=O)C(=O)N1CCC[C@H]1C(=O)N[C@@H](CC(N)=O)C(=O)N[C@@H](C)C(=O)N[C@@H](CCCCN)C(=O)N2 [MTX] (H-VSCTGSKDCYAPCRKQTGCPNAKCINKSCKCYGC-NH2; disulfide 3-24, 9-29, 13-19, 31-34)
activity on voltage-gated K+ channel subtypes including Kv1.2 [5]: active | LD50 ([1]; other: intracerebroventricular): 4 µg/kg | activity on Ca2+-activated K+ channels, e.g. apamin-sensitive SK channels [2]: active | activity on rat Kv1.3 channels (rat Kv1.3 channels): active

CC[C@H](C)[C@@H]1NC(=O)[C@@H]2CSSC[C@H](NC(=O)[C@H](CO)NC(=O)[C@@H](N)C(C)C)C(=O)N[C@@H]([C@@H](C)O)C(=O)NCC(=O)N[C@@H](CO)C(=O)N[C@@H](CCCCN)C(=O)N[C@@H](CC(=O)O)C(=O)N[C@H]3CSSC[C@H](NC(=O)[C@H](CO)NC(=O)[C@H](CCCCN)NC(=O)[C@H](CC(N)=O)NC1=O)C(=O)N[C@@H](CCCCN)C(=O)N[C@H]1CSSC[C@H](NC(=O)[C@@H]4CCCN4C(=O)[C@H](C)NC(=O)[C@H](Cc4ccc(O)cc4)NC3=O)C(=O)N[C@@H](CCCNC(=N)N)C(=O)N[C@@H](CCC(N)=O)C(=O)N[C@@H](CCC(N)=O)C(=O)N[C@@H]([C@@H](C)O)C(=O)NCC(=O)N[C@@H](CSSC[C@@H](C(N)=O)NC(=O)CNC(=O)[C@H](Cc3ccc(O)cc3)NC1=O)C(=O)N1CCC[C@H]1C(=O)N[C@@H](CC(N)=O)C(=O)N[C@@H](C)C(=O)N[C@@H](CCCCN)C(=O)N2 [[Q15]-MTX] (H-VSCTGSKDCYAPCRQQTGCPNAKCINKSCKCYGC-NH2; disulfide 3-24, 9-29, 13-31, 19-34)
lethality/toxicity (C57/BL6 mice; injected intracerebroventricularly at active concentrations): neither lethal nor toxic
